1 compound from patent publication US11103467B2, “Method for treating depression” (DEVELCO PHARMA SCHWEIZ AG, priority 2014, dated 2021) can be followed below.

The conditions of this data set: both, human, serum, iv, 5 mg.

As usually defined, the AUC(0-inf) is the area under the concentration-time curve extrapolated to infinity. A higher AUC(0-inf) goes with more exposure. In general, Cmax refers to the peak of the concentration-time curve. For orientation: half-life means how long it takes for the measured level to halve.

With `CNC1(c2ccccc2Cl)CCCCC1=O` (racemic) [(±)-ketamine, 2-(2-chlorophenyl)-2-(methylamino)cyclohexan-1-one], the AUC(0-inf) came out at 59.9 ± 13.2 ng·h/mL, the highest level (Cmax) was 33.7 ± 9.74 ng/mL and the half-life is 6.99 ± 5.22 h.
